One data set addresses T1, plasmin (Homo sapiens, UniProt P00747).
T1 construct: from tissue; host or cells: human euglobulin (blood plasma fraction), with streptokinase added
In words: In vitro inhibition of plasmin (human euglobulin, streptokinase, fibrinogen). It is filed as biochemical. Conditions: fibrinogen 4%, borate saline pH 7.4, 37° C., 30 minutes, read-out: 50% Inhibition Concentration, Anti-Plasmin.

A further data set concerns the target T2, trypsin (Bos taurus, UniProt P00760).
T2 sequence (P00760 24-246): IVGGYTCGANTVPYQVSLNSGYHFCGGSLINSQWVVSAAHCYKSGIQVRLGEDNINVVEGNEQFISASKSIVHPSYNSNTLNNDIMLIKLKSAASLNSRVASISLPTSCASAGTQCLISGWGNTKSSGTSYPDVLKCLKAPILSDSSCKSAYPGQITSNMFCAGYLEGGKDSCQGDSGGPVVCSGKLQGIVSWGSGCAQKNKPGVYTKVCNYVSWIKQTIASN
Put plainly: In vitro inhibition of trypsin hydrolysis of p-tosylarginine methyl ester. It is filed as biochemical. Conditions: trypsin 0.5 μg, p-tosylarginine methyl ester 20 mM, Tris-HCl pH 8.5, 37° C., 30 minutes; read-out: 50% Inhibition Concentration, Anti-Trypsin.

A short description of the next data set: Acute toxicity in mice. Conditions: mouse, in vivo, route not given.
A short description of the next data set: Acute toxicity in rats. Conditions: rat, in vivo, route and LD50 not given.

This is an account of results in patent US4224342A, “Guanidinobenzoic acid compounds and process for preparing the same” (Ono Pharmaceutical Co., Ltd., priority 1977, dated 1980).

SMILES strings stand for the structures.

What is called LD50 is the dose at which mortality reaches 50%.

T1 sequence (P00747 581-810 limits assumed): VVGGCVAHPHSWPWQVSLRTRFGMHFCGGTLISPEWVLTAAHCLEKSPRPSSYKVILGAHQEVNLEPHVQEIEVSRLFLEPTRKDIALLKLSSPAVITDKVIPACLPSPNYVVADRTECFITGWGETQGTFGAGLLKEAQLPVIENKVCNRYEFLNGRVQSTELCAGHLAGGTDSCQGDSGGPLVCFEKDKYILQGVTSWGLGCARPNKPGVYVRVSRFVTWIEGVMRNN
T1 sequence (P00747 97-580 partner limits assumed): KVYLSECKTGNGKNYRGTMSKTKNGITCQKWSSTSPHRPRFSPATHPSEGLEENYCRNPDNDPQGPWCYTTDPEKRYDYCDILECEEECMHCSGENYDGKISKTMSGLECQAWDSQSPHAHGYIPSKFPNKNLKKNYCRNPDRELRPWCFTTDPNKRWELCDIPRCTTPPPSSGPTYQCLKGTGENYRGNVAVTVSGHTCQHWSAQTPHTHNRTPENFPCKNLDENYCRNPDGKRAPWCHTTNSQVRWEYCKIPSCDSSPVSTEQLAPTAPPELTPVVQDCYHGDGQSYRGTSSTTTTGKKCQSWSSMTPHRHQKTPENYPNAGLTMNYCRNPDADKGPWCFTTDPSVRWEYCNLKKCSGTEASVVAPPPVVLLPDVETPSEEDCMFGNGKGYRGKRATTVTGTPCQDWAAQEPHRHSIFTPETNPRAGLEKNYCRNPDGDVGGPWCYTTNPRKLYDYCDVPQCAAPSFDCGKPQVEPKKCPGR
Description for plasmin: 0.1 ml of human euglobulin (10 fold dilution), 0.1 ml of streptokinase (2000 unit/ml), 0.4 ml of fibrinogen (4% solution), 0.3 ml of a 0.1 M borate saline buffer solution (pH 7.4) and 0.1 ml of a solution of each of the following compounds represented by the formula (I) at various concentrations was allowed to react at a temperature of 37° C. for 30 minutes.

`COC(=O)Cc1ccc(OC(=O)c2ccc(NC(=N)N)cc2)cc1` [methyl p-(p-guanidinobenzoyloxy)phenyl acetate]: the results for the IC50 on plasmin and on trypsin were 220 nM and 9 nM, respectively.
In the same order, the values of `N=C(N)Nc1ccc(C(=O)Oc2ccc(CC(=O)O)cc2)cc1` [P-(p-Guanidinobenzoyloxy)phenylacetic Acid] are 250 nM and 29 nM.
As to `CS(=O)(=O)O.N=C(N)Nc1ccc(C(=O)Oc2ccc(CC(=O)O)cc2)cc1` [4-(4-guanidinobenzoyloxy)phenylacetic acid mesylate], the values for the LD50 in “Acute toxicity in mice” and in the data set “Acute toxicity in rats” were 4500 mg/kg and 4400 mg/kg, respectively.
